Reference: ChEMBL document CHEMBL1201862, “PubChem BioAssay data set” (2004)
Calls of active or inactive are those of the source.

What was measured:
Coagulation factor XII = Coagulation factor XII (Homo sapiens, UniProt P00748); type: functional;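 further: activated factor XIIa alpha cleaving a fluorogenic AMC peptide substrate; inhibitor potency from loss of enzyme activity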
[1] = molecular target: T1, Runt-related transcription factor 1/Core-binding factor subunit beta (Homo sapiens, UniProt Q01196+Q13951); test: Runt domain/CBFb-SMMHC interaction disruptors – biochemical, TR-FRET (AID 1438); type: protein assay
[2] = molecular target: T1, Runt-related transcription factor 1/Core-binding factor subunit beta; test: disruptors of Runt domain/CBFb-SMMHC interaction – biochemical, FRET, Cerulean-Runt, Venus-CBFb-SMMHC, uHTS, […] (AID 1434); type: protein assay
[3] = molecular target: Induced myeloid leukemia cell differentiation protein Mcl-1 (Homo sapiens, UniProt Q07820); type: functional
[4] = molecular target: Voltage-dependent T-type calcium channel subunit alpha-1H (Homo sapiens, UniProt O95180); test: human CACNA1H calcium influx blockade – cell-based, synthetic library set 2, HEK293 HH8, Fluo-4, SAR follow-up (AID 493023); type: functional
[5] = molecular target: DNA damage-inducible transcript 3 protein (Mus musculus, UniProt P35639); type: functional, Cricetulus griseus
[6] = THP-1 cell cytotoxicity, dose response, cytotoxicity control for non-replicating M. tuberculosis project (AID 489025); type: functional
[7] = HepG2 cell cytotoxicity, dose response, cytotoxicity control for non-replicating M. tuberculosis project (AID 489018); type: functional; details: Mycobacterium tuberculosis
[8] = Vero E6 cell cytotoxicity, dose response, cytotoxicity control for non-replicating M. tuberculosis project, secondary assay (AID 492998); type: functional, VeroE6; details: Vero C1008
[9] = molecular target: T2, Heat shock factor protein 1 (Mus musculus, UniProt P38532); test: decrease of HSF1-responsive luciferase luminescence – cell-based, NIH3T3, dose retest, confirmation (AID 2382); type: functional;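 further: NIH3T3 fibroblasts with HSF1-driven luciferase reporter stressed by proteasome inhibitor MG132; luminescence from HSF1-driven luciferase expression after 8 hours of MG132 stress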
T2 sequence (P38532 whole entry): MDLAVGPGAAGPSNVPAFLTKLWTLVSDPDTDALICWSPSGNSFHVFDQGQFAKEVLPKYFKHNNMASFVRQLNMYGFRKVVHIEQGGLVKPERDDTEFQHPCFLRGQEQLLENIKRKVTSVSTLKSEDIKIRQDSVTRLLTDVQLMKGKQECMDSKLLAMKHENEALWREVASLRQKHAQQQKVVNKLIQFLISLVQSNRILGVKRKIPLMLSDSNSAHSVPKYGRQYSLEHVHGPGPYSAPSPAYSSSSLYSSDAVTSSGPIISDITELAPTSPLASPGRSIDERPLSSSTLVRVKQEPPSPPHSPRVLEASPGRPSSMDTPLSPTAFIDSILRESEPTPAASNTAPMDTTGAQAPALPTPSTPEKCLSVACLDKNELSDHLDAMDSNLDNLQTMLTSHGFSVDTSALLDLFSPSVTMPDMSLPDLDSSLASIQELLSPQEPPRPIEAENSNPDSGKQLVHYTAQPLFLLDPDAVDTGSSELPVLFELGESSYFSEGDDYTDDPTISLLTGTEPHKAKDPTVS

[10] = molecular target: T3, DNA repair protein RAD52 homolog (Homo sapiens, UniProt P43351); type: functional, biochemical
T3 sequence (P43351 whole entry): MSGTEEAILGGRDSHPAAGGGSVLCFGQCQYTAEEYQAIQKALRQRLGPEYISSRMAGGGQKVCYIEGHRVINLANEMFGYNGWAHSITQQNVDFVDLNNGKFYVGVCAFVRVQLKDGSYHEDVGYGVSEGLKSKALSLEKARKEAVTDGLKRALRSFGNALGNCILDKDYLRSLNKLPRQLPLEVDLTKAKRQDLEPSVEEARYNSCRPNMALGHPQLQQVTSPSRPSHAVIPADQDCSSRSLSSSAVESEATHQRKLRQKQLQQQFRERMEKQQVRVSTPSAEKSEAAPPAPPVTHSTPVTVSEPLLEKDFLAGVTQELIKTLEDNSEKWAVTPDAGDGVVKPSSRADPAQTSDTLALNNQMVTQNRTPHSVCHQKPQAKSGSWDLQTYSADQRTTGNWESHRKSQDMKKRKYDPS

cells = type: functional
[11] = Luminescence Cell-Based Dose Retest to Confirm Activators of 5'UTR Stem-Loop Driven Alpha-Synuclein mRNA Translation in H4 Neuroglioblastoma Cells. [Related pubchem assays (depositor defined):AID1813, AID1829]; type: functional
[12] = luciferase reporter signal suppression in cells – H4 neuroglioma cells, luminescence, dose response (AID 1990); type: functional, cell-based
[13] = Luminescence Cell-Based Dose Response HTS to Identify Activators of Luciferase Translation or Activity in H4-C Neuroglioblastoma Cells. [Related pubchem assays: 1829 (Project Summary), 1814 (Primary HTS)]; type: functional
[14] = alpha-synuclein stem-loop luciferase translation blockers – H4 neuroglioma cells, luminescence, confirmation (AID 1988); type: functional, cell-based
[15] = Luminescence Cell-Based Dose Response HTS to Identify Activators of 5'UTR Stem-Loop Driven Prion Protein mRNA Translation in H4-C Neuroglioblastoma Cells. [Related pubchem assays: 1829 (Project Summary), 1814 (Primary HTS)]; type: functional
[16] = Luminescence Cell-Based Dose Confirmation HTS to Identify Inhibitors of 5'UTR Stem-Loop Driven Alpha-Synuclein mRNA Translation in H4 Neuroglioblastoma Cells. [Related pubchem assays: 1827 (Project Summary), 1813 (Primary HTS)]; type: functional
[17] = Luminescence Cell-Based Dose HTS Response to Identify Inhibitors of 5'UTR Stem-Loop Driven Prion Protein mRNA Translation in H4-C Neuroglioblastoma Cells. [Related pubchem assays (depositor defined):AID1814, AID1827]; type: functional
[18] = Luminescence Cell-Based Dose Response HTS to Identify Inhibitors of 5'UTR Stem-Loop Driven Prion Protein mRNA Translation in H4 Neuroglioblastoma Cells. [Related pubchem assays: 1827 (Project Summary), 1813 (Primary HTS)]; type: functional
[19] = Luminescence Cell-Based Dose Response HTS to Identify Inhibitors of Luciferase Translation or Activity in H4-C Neuroglioblastoma Cells. [Related pubchem assays: 1813 (Primary HTS), 1827 (Project Summary)]; type: functional
[20] = molecular target: T4, Peroxisome proliferator-activated receptor gamma (Homo sapiens, UniProt P37231); test: PPARg transcriptional activation, reporter cells – cell-based, luminescence, assay provider, dose response (AID 504447); type: functional
T4 sequence (P37231 whole entry): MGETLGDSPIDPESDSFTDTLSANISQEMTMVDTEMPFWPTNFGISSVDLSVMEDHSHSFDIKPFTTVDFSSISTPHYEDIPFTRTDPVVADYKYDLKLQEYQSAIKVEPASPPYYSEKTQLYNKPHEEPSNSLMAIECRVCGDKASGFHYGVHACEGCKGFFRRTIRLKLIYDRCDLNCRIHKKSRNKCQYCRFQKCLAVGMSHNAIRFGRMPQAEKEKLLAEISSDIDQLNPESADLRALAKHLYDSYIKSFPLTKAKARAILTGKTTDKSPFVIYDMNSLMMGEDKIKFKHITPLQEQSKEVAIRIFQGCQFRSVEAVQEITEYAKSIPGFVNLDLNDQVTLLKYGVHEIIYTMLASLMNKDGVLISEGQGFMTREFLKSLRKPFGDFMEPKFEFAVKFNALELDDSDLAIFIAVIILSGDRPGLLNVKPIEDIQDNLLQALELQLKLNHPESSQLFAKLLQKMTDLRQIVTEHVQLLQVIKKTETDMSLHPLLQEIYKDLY

[21] = molecular target: T4, Peroxisome proliferator-activated receptor gamma; test: competitive ligand displacement at PPARg – biochemical, fluorescence polarization, PolarScreen, PPARg partial agonist project, dose response (AID 504453)
[22] = molecular target: T4, Peroxisome proliferator-activated receptor gamma; test: competitive ligand displacement at PPARg – biochemical, TR-FRET, LanthaScreen, PPARg partial agonist project, dose response (AID 504446)
Mucolipin-3 = molecular target: T5, Mucolipin-3 (Homo sapiens, UniProt Q8TDD5); test: Dose response cell-based high-throughput screening assay for agonists of the transient receptor potential channel ML3 (TRPML3). [Related pubchem assays: 1526, 1424, 1448 ]; type: functional
T5 sequence (Q8TDD5 whole entry): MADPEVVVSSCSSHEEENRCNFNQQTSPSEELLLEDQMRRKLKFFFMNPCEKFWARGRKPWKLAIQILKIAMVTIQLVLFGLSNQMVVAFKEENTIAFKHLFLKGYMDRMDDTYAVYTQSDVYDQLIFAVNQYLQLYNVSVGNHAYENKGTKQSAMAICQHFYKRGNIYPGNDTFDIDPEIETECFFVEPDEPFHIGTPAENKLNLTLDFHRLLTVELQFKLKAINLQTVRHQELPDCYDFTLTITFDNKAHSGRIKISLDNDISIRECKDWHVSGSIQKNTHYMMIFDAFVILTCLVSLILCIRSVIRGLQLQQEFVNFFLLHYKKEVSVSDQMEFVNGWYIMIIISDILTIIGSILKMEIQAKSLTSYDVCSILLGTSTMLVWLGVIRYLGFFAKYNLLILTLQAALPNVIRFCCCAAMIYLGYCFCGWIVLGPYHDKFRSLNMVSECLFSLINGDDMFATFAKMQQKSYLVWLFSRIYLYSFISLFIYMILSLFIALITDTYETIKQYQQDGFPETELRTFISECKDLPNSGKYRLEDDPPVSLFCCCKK

[23] = molecular target: T2, Heat shock factor protein 1; test: enhancement of HSF1-driven luciferase signal – cell-based, NIH3T3, luminescence, dose retest, confirmation (AID 435004); type: functional;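 further: stress induced by proteasome inhibitor MG132 added 30 min after compound; luciferase reporter driven by HSF1 response element in NIH3T3 cells; actives raise luminescence as potentiators of the MG132 stress response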
INS1 = test: INS-1E survival protection against cytokine death – cell-based, luminescence, retest, dose response (AID 449756); type: functional; details: Rattus norvegicus;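 further: cell death triggered by IL-1 beta plus TNF-alpha plus IFN-gamma mixture; protective hits raise ATP signal compared with cytokine alone wells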
Ion channel NompC = Ion channel NompC (Danio rerio, UniProt Q7T1G6); test: Fluorescence counterscreen assay for TRPML3 agonists: dose response cell-based high-throughput screening assay to identify agonists of the transient receptor potential channel N1 (TRPN1). [Related pubchem assays: 1526, 1424, 1448 ]; type: functional
[24] = molecular target: Type-1 angiotensin II receptor (Homo sapiens, UniProt P30556); test: agonist activity at AGTR1 – cell-based, uHTS hits, selectivity assay for APJ receptor agonist project, dose response (AID 488865); type: functional;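 further: beta-arrestin recruitment to AT1 measured by enzyme fragment complementation luminescence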
[25] = microbe, parasite or virus in culture; type: functional; details: Mycobacterium tuberculosis
Beta Lactamase = Beta Lactamase (Pseudomonas aeruginosa, UniProt Q932Y6); test: BLA reporter interference, concentration series – BLA reporter cells, FRET fluorescence, artefact control for NOD2-RIPK2 interaction inhibitor project, dose response (AID 651552); type: functional, cell-based
[26] = Fluorescence-based cell-based high throughput dose response assay for inhibitors of the interaction of nucleotide-binding oligomerization domain containing 2 (NOD2) and the receptor-interacting serine-threonine kinase 2 (RIPK2).; type: functional; details: Homo sapiens
Paired box protein Pax-8 = Paired box protein Pax-8 (Homo sapiens, UniProt Q06710); test: PAX8 transcriptional activity inhibition in RMG-I – RMG-I cells, luciferase, cherry-pick, dose response (AID 687027); type: functional, cell-based;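 further: luciferase reporter driven by Pax8 target thyroperoxidase promoter measured by SteadyGlo luminescence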
[27] = molecular target: T6, High affinity choline transporter 1 (Homo sapiens, UniProt Q9GZV3); test: human choline transporter blockers, potency – cell-based, 5-point CRC, membrane potential dye, dose response (AID 504840); type: functional
T6 sequence (Q9GZV3 whole entry): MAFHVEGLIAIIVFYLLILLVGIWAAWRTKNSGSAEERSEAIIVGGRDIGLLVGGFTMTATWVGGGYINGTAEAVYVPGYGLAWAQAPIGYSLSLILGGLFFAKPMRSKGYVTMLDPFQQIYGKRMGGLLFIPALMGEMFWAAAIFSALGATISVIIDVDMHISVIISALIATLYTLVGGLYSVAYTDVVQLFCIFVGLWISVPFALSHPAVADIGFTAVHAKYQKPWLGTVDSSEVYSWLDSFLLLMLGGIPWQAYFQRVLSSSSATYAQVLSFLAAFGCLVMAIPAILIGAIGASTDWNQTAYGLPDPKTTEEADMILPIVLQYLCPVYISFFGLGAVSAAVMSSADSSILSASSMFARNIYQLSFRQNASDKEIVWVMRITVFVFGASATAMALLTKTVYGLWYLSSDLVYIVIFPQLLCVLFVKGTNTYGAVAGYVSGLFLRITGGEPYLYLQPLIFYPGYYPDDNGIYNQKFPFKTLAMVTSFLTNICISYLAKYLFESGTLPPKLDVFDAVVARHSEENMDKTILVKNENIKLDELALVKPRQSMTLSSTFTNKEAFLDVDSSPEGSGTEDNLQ

[28] = molecular target: Heat shock protein HSP 90-alpha (Homo sapiens, UniProt P07900); type: functional, organism-based

T1 sequence (Q01196 whole entry, the tested form may be a part): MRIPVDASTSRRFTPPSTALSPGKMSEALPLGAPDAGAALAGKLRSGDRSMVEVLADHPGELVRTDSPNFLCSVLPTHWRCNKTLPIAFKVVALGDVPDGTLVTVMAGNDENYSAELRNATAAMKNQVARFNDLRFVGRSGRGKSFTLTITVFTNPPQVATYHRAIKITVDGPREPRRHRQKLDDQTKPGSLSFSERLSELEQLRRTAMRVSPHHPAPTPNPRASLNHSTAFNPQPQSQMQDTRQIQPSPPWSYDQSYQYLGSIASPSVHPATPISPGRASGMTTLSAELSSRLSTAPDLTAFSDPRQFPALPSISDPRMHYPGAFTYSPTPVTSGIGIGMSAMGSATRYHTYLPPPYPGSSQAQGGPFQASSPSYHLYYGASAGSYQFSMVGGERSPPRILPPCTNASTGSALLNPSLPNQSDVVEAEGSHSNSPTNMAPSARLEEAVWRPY
T1 sequence (Q13951 whole entry, the tested form may be a part): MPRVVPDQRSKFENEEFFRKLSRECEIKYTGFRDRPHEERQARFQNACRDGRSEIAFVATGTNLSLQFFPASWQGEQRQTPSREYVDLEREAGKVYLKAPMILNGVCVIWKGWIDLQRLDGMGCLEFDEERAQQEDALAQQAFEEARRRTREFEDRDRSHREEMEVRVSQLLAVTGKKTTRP
Chain of Ion channel NompC (Q7T1G6 whole entry, the tested form may be a part): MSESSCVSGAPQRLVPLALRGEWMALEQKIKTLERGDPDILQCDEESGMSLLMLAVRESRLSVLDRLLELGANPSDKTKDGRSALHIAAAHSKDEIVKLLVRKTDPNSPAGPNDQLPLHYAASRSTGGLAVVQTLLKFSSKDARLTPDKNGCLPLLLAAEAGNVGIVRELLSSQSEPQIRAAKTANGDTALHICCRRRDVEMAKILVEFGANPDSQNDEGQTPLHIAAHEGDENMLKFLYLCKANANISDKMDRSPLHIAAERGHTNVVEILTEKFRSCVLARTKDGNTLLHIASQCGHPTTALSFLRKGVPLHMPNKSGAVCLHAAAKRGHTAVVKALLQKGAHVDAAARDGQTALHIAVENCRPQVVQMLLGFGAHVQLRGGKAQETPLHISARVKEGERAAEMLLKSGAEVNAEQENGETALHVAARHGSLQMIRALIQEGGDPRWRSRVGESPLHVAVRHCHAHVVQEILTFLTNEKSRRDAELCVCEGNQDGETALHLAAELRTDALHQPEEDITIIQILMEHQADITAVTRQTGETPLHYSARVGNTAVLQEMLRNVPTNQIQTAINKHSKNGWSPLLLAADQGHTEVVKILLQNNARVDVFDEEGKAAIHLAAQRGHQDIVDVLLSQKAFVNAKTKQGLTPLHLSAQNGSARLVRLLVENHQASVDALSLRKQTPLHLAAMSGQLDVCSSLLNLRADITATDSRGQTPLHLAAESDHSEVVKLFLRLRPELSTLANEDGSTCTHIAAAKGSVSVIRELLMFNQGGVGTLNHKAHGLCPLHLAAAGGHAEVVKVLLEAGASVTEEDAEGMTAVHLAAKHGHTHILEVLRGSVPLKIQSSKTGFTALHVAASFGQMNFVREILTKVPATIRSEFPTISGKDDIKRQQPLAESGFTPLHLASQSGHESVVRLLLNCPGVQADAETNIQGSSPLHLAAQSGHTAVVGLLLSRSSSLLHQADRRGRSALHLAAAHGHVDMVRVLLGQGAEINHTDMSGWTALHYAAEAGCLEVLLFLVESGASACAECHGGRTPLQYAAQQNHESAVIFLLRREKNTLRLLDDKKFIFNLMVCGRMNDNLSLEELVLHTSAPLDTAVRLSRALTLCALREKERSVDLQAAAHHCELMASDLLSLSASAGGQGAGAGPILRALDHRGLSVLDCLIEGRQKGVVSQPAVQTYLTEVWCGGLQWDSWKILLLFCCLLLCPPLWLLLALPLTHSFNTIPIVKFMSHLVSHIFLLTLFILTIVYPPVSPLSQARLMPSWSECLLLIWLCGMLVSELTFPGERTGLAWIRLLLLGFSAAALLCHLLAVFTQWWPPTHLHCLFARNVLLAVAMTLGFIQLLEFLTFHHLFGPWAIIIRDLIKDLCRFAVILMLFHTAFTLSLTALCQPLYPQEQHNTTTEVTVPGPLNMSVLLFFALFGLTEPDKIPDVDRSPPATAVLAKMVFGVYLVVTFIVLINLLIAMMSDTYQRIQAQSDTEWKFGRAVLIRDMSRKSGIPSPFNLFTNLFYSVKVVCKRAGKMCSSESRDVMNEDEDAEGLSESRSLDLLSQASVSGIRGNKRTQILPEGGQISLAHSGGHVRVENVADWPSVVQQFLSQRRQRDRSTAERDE
Chain of Paired box protein Pax-8 (Q06710 whole entry): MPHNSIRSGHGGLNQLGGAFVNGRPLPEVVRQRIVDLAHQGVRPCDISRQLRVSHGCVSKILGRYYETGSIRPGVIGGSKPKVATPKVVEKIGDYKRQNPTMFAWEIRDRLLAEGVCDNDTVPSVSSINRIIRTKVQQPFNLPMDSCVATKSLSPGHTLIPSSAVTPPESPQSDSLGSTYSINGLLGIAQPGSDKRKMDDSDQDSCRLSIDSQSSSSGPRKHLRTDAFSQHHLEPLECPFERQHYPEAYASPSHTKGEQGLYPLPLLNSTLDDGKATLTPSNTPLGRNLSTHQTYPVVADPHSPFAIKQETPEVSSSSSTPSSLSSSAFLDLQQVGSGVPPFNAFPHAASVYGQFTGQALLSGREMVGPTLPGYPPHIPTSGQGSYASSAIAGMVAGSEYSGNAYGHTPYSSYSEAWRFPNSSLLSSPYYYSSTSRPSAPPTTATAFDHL
Chain of Type-1 angiotensin II receptor (P30556 whole entry, the tested form may be a part): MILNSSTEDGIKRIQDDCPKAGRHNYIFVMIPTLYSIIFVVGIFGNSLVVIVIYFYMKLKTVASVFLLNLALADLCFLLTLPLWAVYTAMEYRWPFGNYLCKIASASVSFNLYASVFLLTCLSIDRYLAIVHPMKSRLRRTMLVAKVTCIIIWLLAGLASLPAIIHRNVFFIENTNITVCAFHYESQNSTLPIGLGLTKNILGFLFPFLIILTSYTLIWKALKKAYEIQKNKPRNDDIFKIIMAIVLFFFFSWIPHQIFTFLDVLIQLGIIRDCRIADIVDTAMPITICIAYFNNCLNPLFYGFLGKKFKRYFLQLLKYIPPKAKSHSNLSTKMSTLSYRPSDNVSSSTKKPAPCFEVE
Chain of Beta Lactamase (Q932Y6 whole entry, the tested form may be a part): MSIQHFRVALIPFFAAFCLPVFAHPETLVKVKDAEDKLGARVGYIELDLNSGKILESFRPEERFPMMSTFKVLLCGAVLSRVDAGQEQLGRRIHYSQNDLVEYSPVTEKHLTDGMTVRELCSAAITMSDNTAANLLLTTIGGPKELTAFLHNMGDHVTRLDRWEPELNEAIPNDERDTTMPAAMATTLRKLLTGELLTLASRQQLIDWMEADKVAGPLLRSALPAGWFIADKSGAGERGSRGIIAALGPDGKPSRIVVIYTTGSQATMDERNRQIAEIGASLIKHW
Chain of Coagulation factor XII (P00748 20-372 limits assumed): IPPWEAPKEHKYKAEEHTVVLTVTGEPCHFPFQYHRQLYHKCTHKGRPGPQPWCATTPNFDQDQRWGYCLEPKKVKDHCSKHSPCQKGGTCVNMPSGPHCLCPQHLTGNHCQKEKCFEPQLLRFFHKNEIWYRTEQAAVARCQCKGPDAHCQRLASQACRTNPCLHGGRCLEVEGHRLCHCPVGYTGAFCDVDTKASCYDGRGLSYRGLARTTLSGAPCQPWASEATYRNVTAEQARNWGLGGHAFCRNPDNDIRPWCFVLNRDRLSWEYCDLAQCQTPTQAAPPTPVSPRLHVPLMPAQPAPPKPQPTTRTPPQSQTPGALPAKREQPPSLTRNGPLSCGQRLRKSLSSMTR
Chain of Coagulation factor XII (P00748 373-615 limits assumed): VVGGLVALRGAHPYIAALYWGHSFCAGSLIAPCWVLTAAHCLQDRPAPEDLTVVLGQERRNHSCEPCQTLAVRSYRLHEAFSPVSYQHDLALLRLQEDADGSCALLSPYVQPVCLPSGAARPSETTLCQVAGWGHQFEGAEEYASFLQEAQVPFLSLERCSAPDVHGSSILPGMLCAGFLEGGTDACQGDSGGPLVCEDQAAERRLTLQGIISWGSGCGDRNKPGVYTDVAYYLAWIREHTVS
Chain of Induced myeloid leukemia cell differentiation protein Mcl-1 (Q07820 whole entry): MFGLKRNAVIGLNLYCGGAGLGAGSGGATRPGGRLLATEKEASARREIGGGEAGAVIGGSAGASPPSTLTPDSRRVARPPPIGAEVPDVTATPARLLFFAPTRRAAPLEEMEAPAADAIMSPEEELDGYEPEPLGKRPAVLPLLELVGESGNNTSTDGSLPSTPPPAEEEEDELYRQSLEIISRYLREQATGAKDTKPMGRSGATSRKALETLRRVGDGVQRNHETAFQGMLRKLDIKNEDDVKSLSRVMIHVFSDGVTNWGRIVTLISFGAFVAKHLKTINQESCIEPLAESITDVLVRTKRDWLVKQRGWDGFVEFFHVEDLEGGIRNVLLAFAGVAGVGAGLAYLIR
Chain of DNA damage-inducible transcript 3 protein (P35639 whole entry): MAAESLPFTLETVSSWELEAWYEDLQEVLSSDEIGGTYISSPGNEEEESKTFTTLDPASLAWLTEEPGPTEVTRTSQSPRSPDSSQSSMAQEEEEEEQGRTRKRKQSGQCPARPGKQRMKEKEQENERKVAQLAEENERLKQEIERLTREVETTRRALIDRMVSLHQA

CCCCCCCCCCCC(=O)N1CC(=O)NC(=O)C1
IC50 (Coagulation factor XII): > 50 µM (inactive)

Nc1c(C(=O)NCCN2CCOCC2)c2nc3ccccc3nc2n1Cc1ccco1
IC50 [1]: > 100 µM (inactive)
IC50 [2]: 1.19 µM (active)
IC50 [3]: 6.49 µM (not active)

O=C(COc1ccc(F)c(Cl)c1)N[C@@H]1CCCN(Cc2ccccc2)C1
EC50 [4]: 10 µM (active)

O=C(c1ccc(Cl)cc1)N1CCC(O)(CSc2ccc(Cl)cc2Cl)CC1
Absolute IC50 (CHOP) [5]: 10 µM

CCN(CC)CCCN(C(=O)c1ccco1)c1nc(-c2ccc(C)cc2)cs1
CC50 [6]: 38.2 µM (active)
CC50 [7]: > 20 µM (active)
CC50 [8]: > 20 µM (active)
EC50 [9]: > 195 µM (not active)
AC50 [10]: 20.7 µM (active)
IC50 (cells): 44.2 µM (active)

Cc1cc(C)cc(Nc2nc3ccc(C)cc3n3cnnc23)c1
EC50 [11]: 16.6 µM (inconclusive)
EC50 [12]: > 120 µM (not active)
EC50 [13]: 20.5 µM (inconclusive)
EC50 [14]: 2.82 µM (active)
EC50 [15]: > 195 µM (inconclusive)
EC50 [16]: 16.6 µM (active)
EC50 [17]: > 195 µM (inactive)
EC50 [18]: > 120 µM (not active)
EC50 [19]: 20.5 µM (active)

CCOc1ccc2nc(N3C(=O)C(O)=C(C(=O)c4ccco4)C3c3ccco3)sc2c1 (stereo not given)
EC50 [20]: 1.2 µM (active)
IC50 [21]: 3 µM (active)
IC50 [22]: 8.2 µM (inactive)

CC1=CC(=O)C(C(C)C)=C/C1=N/OS(=O)(=O)c1ccccc1
EC50 (Mucolipin-3): > 29.9 µM (not active)
EC50 [23]: 4.19 µM (active)
AC50 (INS1): 1.06 µM (active)
EC50 (Ion channel NompC): > 29.9 µM (not active)
EC50 [24]: > 100 µM (inactive)
CC50 [25]: 9.69 µM (active)
IC50 (Beta Lactamase): 49.8 µM (inactive)
IC50 [26]: 7.38 µM (active)
AC50 (Paired box protein Pax-8): 6.97 µM (active)
IC50 [27]: 12 µM (active)
AC50 [28]: 3.61 µM (active)
